# Assay results from publication PMC11470957, “Principles of paralog-specific targeted protein degradation engaging the C-degron E3 KLHDC2” (Nature Communications, 2024).
# Like-named read-outs stand apart in the source and are kept apart here.
# Target: BRD2 (Homo sapiens, UniProt P25440)
# Assay: Western blot of BRD2 levels after cellular dosing
# [1] = U2OS, read-out: BRD2 level, Western blot quantification (DMSO = 100), Fig S6d, U2OS KO/rescue Dose Response
# [2] = read-out: BRD2 level, Western blot quantification (DMSO = 100), Fig S6e, PC3 KO/rescue Dose Response
# Sequence of BRD2 (P25440 whole entry): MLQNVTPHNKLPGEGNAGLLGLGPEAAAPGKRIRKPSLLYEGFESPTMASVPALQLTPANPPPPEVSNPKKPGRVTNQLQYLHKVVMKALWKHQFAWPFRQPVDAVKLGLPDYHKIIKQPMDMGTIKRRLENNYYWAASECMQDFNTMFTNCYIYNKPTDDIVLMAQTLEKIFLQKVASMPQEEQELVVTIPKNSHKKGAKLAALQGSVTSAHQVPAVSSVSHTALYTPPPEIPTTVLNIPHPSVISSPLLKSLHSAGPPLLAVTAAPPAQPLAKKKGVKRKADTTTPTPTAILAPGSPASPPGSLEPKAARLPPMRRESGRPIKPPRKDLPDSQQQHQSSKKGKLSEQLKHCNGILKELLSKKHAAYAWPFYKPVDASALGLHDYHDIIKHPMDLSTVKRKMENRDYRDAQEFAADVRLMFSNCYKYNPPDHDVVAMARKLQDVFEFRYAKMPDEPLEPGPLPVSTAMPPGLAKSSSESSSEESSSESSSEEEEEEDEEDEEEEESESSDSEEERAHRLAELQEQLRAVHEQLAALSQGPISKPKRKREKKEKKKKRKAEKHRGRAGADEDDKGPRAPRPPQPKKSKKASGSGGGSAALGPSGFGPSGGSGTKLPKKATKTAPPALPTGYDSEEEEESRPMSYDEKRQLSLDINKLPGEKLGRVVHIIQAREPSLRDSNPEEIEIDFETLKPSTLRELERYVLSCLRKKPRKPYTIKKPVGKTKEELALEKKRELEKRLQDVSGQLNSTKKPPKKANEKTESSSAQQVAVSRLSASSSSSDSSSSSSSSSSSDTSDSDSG
smiles,measurement,setting,value
COC(=O)CNC(=O)Cc1csc(-c2ccc3cccc(OCCN4CCN(C(=O)C[C@@H]5N=C(c6ccc(Cl)cc6)c6c(sc(C)c6C)-n6c(C)nnc65)CC4)c3c2)n1 [SJ46420],remaining activity at 1 µM,"SK-BR-3, 4 h, read-out: BRD2 level relative to DMSO (100%), SKBR3, 1µM, 4hr, Fig S6g",82 ± 4%
same,remaining activity at 5 µM,"SK-BR-3, 4 h, read-out: BRD2 level relative to DMSO (100%), SKBR3, 5µM, 4hr, Fig S6g",83 ± 6.1%
same,remaining activity at 5 µM,"SK-BR-3, 4 h, read-out: BRD2 level relative to DMSO (100%), SKBR3, 5µM, 4hr, Fig S6j",85 ± 7.3%
same,remaining activity at 1 µM,"SK-BR-3, 4 h, read-out: BRD2 level, Western blot quantification (DMSO = 100), Fig S6g, SKBR3 Time course, 1 uM, 4hr",79.4%
same,remaining activity at 5 µM,"SK-BR-3, 4 h, read-out: BRD2 level, Western blot quantification (DMSO = 100), Fig S6g, SKBR3 Time course, 5 uM, 4hr",79.5%
same,remaining activity at 1 µM,"SK-BR-3, 8 h, read-out: BRD2 level relative to DMSO (100%), SKBR3, 1µM, 8hr, Fig S6g",81 ± 7.6%
same,remaining activity at 5 µM,"SK-BR-3, 8 h, read-out: BRD2 level relative to DMSO (100%), SKBR3, 5µM, 8hr, Fig S6g",90 ± 9.8%
same,remaining activity at 1 µM,"SK-BR-3, 8 h, read-out: BRD2 level, Western blot quantification (DMSO = 100), Fig S6g, SKBR3 Time course, 1 uM, 8hr",76.3%
same,remaining activity at 5 µM,"SK-BR-3, 8 h, read-out: BRD2 level, Western blot quantification (DMSO = 100), Fig S6g, SKBR3 Time course, 5 uM, 8hr",97.9%
same,remaining activity at 5 µM,"SK-BR-3, read-out: BRD2 level, Western blot quantification (DMSO = 100), Fig S6i, SKBR3, 5uM",90.6%
same,BRD2 Dmax,"U2OS KO/Rescue, 24 h dose",~ 100%
same,remaining activity at 5 µM,"U2OS, 2 h, read-out: BRD2 level relative to DMSO (100%), U2OS, 5µM, 2hr, Fig S6h",102 ± 6.9%
same,remaining activity at 5 µM,"U2OS, 2 h, read-out: BRD2 level, Western blot quantification (DMSO = 100), Fig S6h, U2OS Time course, 5uM, 2hr",108%
same,remaining activity at 5 µM,"U2OS, 4 h, read-out: BRD2 level relative to DMSO (100%), U2OS, 5µM, 4hr, Fig S6h",104 ± 6.4%
same,remaining activity at 5 µM,"U2OS, 4 h, read-out: BRD2 level, Western blot quantification (DMSO = 100), Fig S6h, U2OS Time course, 5uM, 4hr",109%
same,remaining activity at 5 µM,"U2OS, 8 h, read-out: BRD2 level relative to DMSO (100%), U2OS, 5µM, 8hr, Fig S6i",120 ± 3.4%
same,remaining activity at 5 µM,"U2OS, 8 h, read-out: BRD2 level relative to DMSO (100%), U2OS, 5µM, 8hr, Fig S6h",106 ± 8.4%
same,remaining activity at 5 µM,"U2OS, 8 h, read-out: BRD2 level, Western blot quantification (DMSO = 100), Fig S6h, U2OS Time course, 5uM, 8hr",112%
same,remaining activity at 5 µM,"U2OS, 24 h, read-out: BRD2 level relative to DMSO (100%), U2OS DC2KO (KLHDC2 knockout), 5µM, 24 h, Fig 6b",77 ± 2%
same,remaining activity at 0.16 µM,"U2OS, 24 h, read-out: BRD2 level relative to DMSO (100%), U2OS KO/Rescue, 0.16µM, 24 h, Fig S6d",94 ± 6.9%
same,remaining activity at 0.31 µM,"U2OS, 24 h, read-out: BRD2 level relative to DMSO (100%), U2OS KO/Rescue, 0.31µM, 24 h, Fig S6d",77 ± 6.6%
same,remaining activity at 0.63 µM,"U2OS, 24 h, read-out: BRD2 level relative to DMSO (100%), U2OS KO/Rescue, 0.63µM, 24 h, Fig S6d",63 ± 3.8%
same,remaining activity at 1 µM,"U2OS, 24 h, read-out: BRD2 level relative to DMSO (100%), U2OS KO/Rescue, 1µM + co-dosing 1µM MLN4924, 24 h, Fig 6d",350 ± 120%
same,remaining activity at 1 µM,"U2OS, 24 h, read-out: BRD2 level relative to DMSO (100%), U2OS KO/Rescue, 1µM, 24 h, Fig 6c",88 ± 8.4%
same,remaining activity at 1 µM,"U2OS, 24 h, read-out: BRD2 level relative to DMSO (100%), U2OS KO/Rescue, 1µM, 24 h, Fig 6d",68 ± 17%
same,remaining activity at 1.3 µM,"U2OS, 24 h, read-out: BRD2 level relative to DMSO (100%), U2OS KO/Rescue, 1.3µM, 24 h, Fig S6d",54 ± 6.7%
same,remaining activity at 2.5 µM,"U2OS, 24 h, read-out: BRD2 level relative to DMSO (100%), U2OS KO/Rescue, 2.5µM, 24 h, Fig S6d",37 ± 9.7%
same,remaining activity at 5 µM,"U2OS, 24 h, read-out: BRD2 level relative to DMSO (100%), U2OS KO/Rescue, 5µM, 24 h, Fig S6d",12 ± 2.2%
same,remaining activity at 5 µM,"U2OS, 24 h, read-out: BRD2 level relative to DMSO (100%), U2OS, 5µM, 24 h, Fig 6b",87 ± 5%
same,remaining activity at 5 µM,"U2OS, 24 h, read-out: BRD2 level relative to DMSO (100%), U2OS, 5µM, 24hr, Fig S6h",77 ± 4.3%
same,remaining activity at 5 µM,"U2OS, 24 h, read-out: BRD2 level, Western blot quantification (DMSO = 100), Fig S6h, U2OS Time course, 5uM, 24hr",79.8%
same,remaining activity at 1.59176 µM,"U2OS, read-out: BRD2 (DMSO = 100), U2OS KO/Rescue cells, Log SJ46420 (uM) 1.59176, Rep1, Rep2",102%
same,remaining activity at 1.89279 µM,"U2OS, read-out: BRD2 (DMSO = 100), U2OS KO/Rescue cells, Log SJ46420 (uM) 1.89279, Rep1, Rep2",99%
same,remaining activity at 2.19382 µM,"U2OS, read-out: BRD2 (DMSO = 100), U2OS KO/Rescue cells, Log SJ46420 (uM) 2.19382, Rep1, Rep2",82.2%
same,remaining activity at 2.49485 µM,"U2OS, read-out: BRD2 (DMSO = 100), U2OS KO/Rescue cells, Log SJ46420 (uM) 2.49485, Rep1, Rep2",66.6%
same,remaining activity at 2.79588 µM,"U2OS, read-out: BRD2 (DMSO = 100), U2OS KO/Rescue cells, Log SJ46420 (uM) 2.79588, Rep1, Rep2",49.5%
same,remaining activity at 3.09691 µM,"U2OS, read-out: BRD2 (DMSO = 100), U2OS KO/Rescue cells, Log SJ46420 (uM) 3.09691, Rep1, Rep2",30.5%
same,remaining activity at 3.39794 µM,"U2OS, read-out: BRD2 (DMSO = 100), U2OS KO/Rescue cells, Log SJ46420 (uM) 3.39794, Rep1, Rep2",13.8%
same,remaining activity at 3.69897 µM,"U2OS, read-out: BRD2 (DMSO = 100), U2OS KO/Rescue cells, Log SJ46420 (uM) 3.69897, Rep1, Rep2",1.16%
same,Dmax,"U2OS, read-out: BRD2 Dmax, U2OS KO/Rescue, 24 h dose",99.3%
same,remaining activity at 5 µM,"U2OS, read-out: BRD2 level, Western blot quantification (DMSO = 100), Fig 6b, U2OS, 5 uM",90.7%
same,remaining activity at 5 µM,"U2OS, read-out: BRD2 level, Western blot quantification (DMSO = 100), Fig S6i, U2OS, 5uM",118%
same,remaining activity at 0.156 µM,[1],83.3%
same,remaining activity at 0.313 µM,[1],100%
same,remaining activity at 0.625 µM,[1],81.2%
same,remaining activity at 1.25 µM,[1],85.7%
same,remaining activity at 2.5 µM,"U2OS, read-out: BRD2 level, Western blot quantification (DMSO = 100), Fig S6d, U2OS KO/rescue Dose Response, 2.5 uM",86.6%
same,remaining activity at 5 µM,"U2OS, read-out: BRD2 level, Western blot quantification (DMSO = 100), Fig S6d, U2OS KO/rescue Dose Response, 5 uM",86.5%
same,Dmax,"read-out: BRD2 Dmax, PC3, 24 h dose",19.5%
same,remaining activity at 5 µM,"read-out: BRD2 level, Western blot quantification (DMSO = 100), Fig 6b, KO/Rescue, 5 uM",78.2%
same,remaining activity at 0.156 µM,[2],99%
same,remaining activity at 0.313 µM,[2],82.2%
same,remaining activity at 0.625 µM,[2],66.6%
same,remaining activity at 1.25 µM,[2],49.5%
same,remaining activity at 2.5 µM,"read-out: BRD2 level, Western blot quantification (DMSO = 100), Fig S6e, PC3 KO/rescue Dose Response, 2.5 uM",30.5%
same,remaining activity at 5 µM,"read-out: BRD2 level, Western blot quantification (DMSO = 100), Fig S6e, PC3 KO/rescue Dose Response, 5 uM",13.8%
same,remaining activity at 10 µM,"read-out: BRD2 level, Western blot quantification (DMSO = 100), Fig S6e, PC3 KO/rescue Dose Response, 10uM",1.16%
